Measured values from PubChem BioAssay (NCI).
Several values for one entry are separate records, joined by “and”; a condition that tells them apart may be missing. Equal entries are not always repeated.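 In this assay, cells in 96-well plates receive the compound at five concentrations for 48 hours. Endpoints are linearly interpolated between the surrounding concentrations. GI50: concentration for 50% inhibition of growth. TGI: concentration producing complete growth inhibition.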

Legend:
Test in all cases: NCI anticancer screen, dose series, 48 h
A498 renal = test system: A498 renal
CCRF-CEM leukemia = test system: CCRF-CEM leukemia
HOP-62 NSCLC = test system: HOP-62 NSCLC
K-562 leukemia = test system: K-562 leukemia
MDA-MB-435 = test system: MDA-MB-435
NCI-H522 lung = test system: NCI-H522 lung
OVCAR-5 ovarian = test system: OVCAR-5 ovarian
U251 CNS = test system: U251 CNS
SF-539 CNS = test system: SF-539 CNS
SNB-75 CNS = test system: SNB-75 CNS

SMILES	TGI (A498 renal)	TGI (CCRF-CEM leukemia)	TGI (HOP-62 NSCLC)	TGI (K-562 leukemia)	TGI (MDA-MB-435)	TGI (NCI-H522 lung)	TGI (OVCAR-5 ovarian)	TGI (U251 CNS)	TGI (SF-539 CNS)	TGI (SNB-75 CNS)	GI50 (CCRF-CEM leukemia)	GI50 (HOP-62 NSCLC)	GI50 (K-562 leukemia)	GI50 (NCI-H522 lung)	GI50 (SF-539 CNS)	GI50 (SNB-75 CNS)	GI50 (U251 CNS)
CCOC(=O)CCN1C(=O)c2c(NC(=O)C(=O)O)cccc2S1(=O)=O	> 100 µM	> 100 µM	> 100 µM	> 100 µM	> 100 µM	> 100 µM	> 100 µM	> 100 µM									
O=c1cc(-c2ccccc2)[nH]c2c(F)ccc(F)c12		> 100 µM	> 100 µM	> 100 µM		> 100 µM	> 100 µM	> 100 µM	> 100 µM	59 µM							
CCOC(=O)N1c2c(c3ccccc3n2C(=O)OCC)C(=O)C(OC)N1C(=O)OCC (stereo unspecified)	88.6 µM	> 100 µM	> 100 µM	> 100 µM	> 100 µM	41.2 µM	> 100 µM	76.5 µM	74.7 µM								
CC1CN=C(N(C(=O)Nc2ccccc2)C2CCCCC2)S1 (stereo unspecified)	34.7 µM	53.7 µM	> 100 µM	73.2 µM			28.9 µM	30.8 µM	43.2 µM	28.9 µM							
O=C(CSCC(=O)N/N=C\c1cccc(Br)c1)N/N=C\c1cccc(Br)c1			31.7 µM	68.4 µM	44.7 µM	51.9 µM	33.6 µM	28.8 µM	50.8 µM	39.4 µM							
N#Cc1c(NC(=S)Nc2ccccc2)sc2c1CCCC2	> 100 µM		> 100 µM	> 100 µM	> 100 µM	> 100 µM	> 100 µM	> 100 µM		> 100 µM							
S=C1NNC(=S)NN1	> 1 µM	> 1 µM	> 1 µM	0.478 µM		> 1 µM		> 1 µM	> 1 µM								
Cc1cnc2cc(Cl)ccc2c1SCC(=O)O	> 100 µM	> 100 µM	> 100 µM	> 100 µM	> 100 µM	> 100 µM	> 100 µM	> 100 µM									
CCC(C)Cn1c(C)nc2c1C(=O)c1ccccc1C2=O (stereo unspecified)		96.8 µM	> 100 µM	> 100 µM		> 100 µM		> 100 µM	59.5 µM	> 100 µM							
CC1[C@@H]2C[C@@H]3O[C@@]34[C@H]3CCC5Cc6nc7c(nc6C[C@@]5(C)C3(O)CC(=O)[C@@]24CO[C@]12OC(C)(C)CC2O)CC1CC[C@@H]2C3=C[C@H]4O[C@@]5(O[C@@](C)(CO)C[C@@H]5O)C(C)[C@@]4(O)[C@]3(C)[C@@H](O)CC2[C@]1(C)C7 (stereo partly specified)	0.0643 µM	0.0413 µM	0.0729 µM	0.666 µM		0.653 µM	0.218 µM	0.332 µM	0.115 µM	0.028 µM							
CN(C)CC(C)(C)C(=O)/C=C/c1ccccc1	39.5 µM	23.2 µM	96.3 µM	33.7 µM		23 µM		30.5 µM	32.3 µM	37.7 µM							
COc1cccc2c1C(=O)c1c(O)c3c(c(O)c1C2=O)C[C@@](O)(C(=O)CO)CC3OC1CC(NCCCCC(OC(C)=O)OC(C)=O)C(O)C(C)O1 (stereo partly specified)	0.0211 µM	0.0118 µM		0.00466 µM		0.00344 µM and 0.00513 µM	> 1 µM		0.00421 µM and 0.0374 µM	0.00432 µM and 0.00344 µM	0.000538 µM	0.00248 µM	0.000522 µM	0.00125 µM	0.00296 µM	0.000927 µM	0.00266 µM
C=C1CC2C[C@H](OS(=O)(=O)c3ccc(C)cc3)C(C1)N2C (stereo partly specified)		> 100 µM	> 100 µM	> 100 µM	> 100 µM	> 100 µM		> 100 µM	> 100 µM	> 100 µM							
COc1ccc(OC)c([N+](=O)[O-])c1-c1nc2sc(C)cn2c1/C=N/N=C(N)N	78 µM	> 100 µM	> 100 µM	28.7 µM	56.7 µM	46.5 µM	> 100 µM	> 100 µM	> 100 µM								
CN(C)CCSc1nccc(-c2ccc(-c3ccnc(SCCN(C)C)n3)s2)n1	29.6 µM	17.4 µM	30.6 µM	23.2 µM		33.5 µM	29.4 µM	26 µM	20.4 µM	28.2 µM							
CO/C=C(/C(=O)OC)c1ccccc1[C@H]1C[C@@H]1c1ccccc1	87.2 µM	> 100 µM	> 100 µM	> 100 µM	43.3 µM	32 µM	> 100 µM	> 100 µM	42.7 µM								
Cc1nc2cccc(F)c2c(=O)n1-c1nnc(C2CC2)s1		> 10 µM	> 10 µM	> 10 µM	> 10 µM	> 10 µM	> 10 µM	> 10 µM	> 10 µM	> 10 µM							
